{"source": "patent EP3386957B1", "about": "“PROCESS FOR THE PURIFICATION OF 10-DEACETYL BACCATIN III” (RotaChrom Technológiai és Szolgálató Zártkörüen Müködö …, priority 2015, dated 2017)", "assay": "Selectivity of CPC solvent systems for contaminants of 10-DAB III (contaminants identified by HPLC relative retention time)", "assay_type": "physicochemical", "settings": "CPC solvent mixture MTBE/acetone/water; Table 3", "protocol": "The HPLC methods used for the analysis: • 1. Isocratic method • Column: Dr Maisch ReproSil-Pur C18-AQ (150x4.0 mm, 3 um) • Column thermostat: 35 °C • Flow rate: 0.75 ml/min • Eluent: 28% acetonitrile, 72% water, 0.1% acetic acid • Detection wavelength: 230 +/- 5 nm • Injected volume: 10 ul • 2. Gradient method • Colum: Phenomenex Kinetex C18 (100x3.0 mm, 2.6 um) • Column thermostat: 35 °C • Flow rate: 0.7 ml/min • Eluent A: water + 0.1% acetic acid Eluent B: acetonitrile Gradient program: 0 min 20% B, 5 min: 30% B, 11 min 40% B, 13 min 40% B, 14 min 20% B, 18 min 20% B • Detection wavelength: 230 +/- 5 nm • Injected volume: 5 ul\nTable 3: the selectivity matrix of the individual methods according to the invention"}
{"smiles": "CC(=O)O[C@@]12CO[C@@H]1C[C@H](O)[C@@]1(CO)C(=O)[C@H](O)C3=C(C)[C@@H](O)C[C@@](O)([C@@H](OC(=O)c4ccccc4)[C@H]21)C3(C)C", "note": "[RRT=0.48, 19-OH-10-deacetylbaccatin III]", "values": [{"measurement": "selectivity", "value": "+++ (high selectivity)"}]}
